Laboratory results from patent publication US9023789B2, “Amylin analogs and pharmaceutical compositions thereof” (Novo Nordisk A/S, priority 2012, dated 2015).
In brackets after ≈: the same amount, converted by molar mass. Where two headings read alike, the source gives them in different places. Numbered stars: 1 amine (or outer) side, 2 acyl side, 3 side chain; on linkers, the order of the positions; unused ones are H or OH. Bridge positions count the residues as written; N and C are the ends. Side chains are listed from the residue outwards. Peptide text beside a SMILES is read from it. * marks the point of attachment. C20 diacid = O=C(O)CCCCCCCCCCCCCCCCCCC(=O)*; γGlu = O=C(O)[C@H](CCC(=O)[*:2])N[*:1]

Key:
[1] = target: T1, human amylin 3(a) receptor (human calcitonin receptor + RAMP-3) in BHK570 cells (Homo sapiens, UniProt O60896+P30988); assay: ASSAY (II)a functional assay, human amylin receptor (CRE luciferase); format: cell-based
T1 construct: expressed in transfected cells
Outline: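 Receptor activation is measured as cAMP-driven CRE-luciferase expression in BHK cells expressing the calcitonin receptor, with RAMP-3 co-expressed to form the amylin 3(a) receptor. Cells are exposed to compound for 3 hours at 37° C, and luciferase is then quantified by luminescence.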

[2] = ASSAY (IV) determination of solubility; format: physicochemical
Outline: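 Samples of polypeptide, prepared from a water stock at […] and diluted 1:1 into 100 mM buffers spanning pH 3.0 to 8.0, stood 18 hours at room temperature. Polypeptide concentration was then determined by UPLC following centrifugation.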

[3] = target: T2, human amylin receptor (membranes from Amylin 3(a)/CRE-luc cells) (Homo sapiens, UniProt O60896+P30988); assay: ASSAY (V) binding to the human amylin receptor (SPA, 125I-rat amylin);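 also: competition binding of cell membranes (35 ng/µL) mixed with SPA beads in 384-well plates at 40 µL total volume, read by scintillation counting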
T2 construct: expressed in transfected cells
T2 sequence (P30988 25-474): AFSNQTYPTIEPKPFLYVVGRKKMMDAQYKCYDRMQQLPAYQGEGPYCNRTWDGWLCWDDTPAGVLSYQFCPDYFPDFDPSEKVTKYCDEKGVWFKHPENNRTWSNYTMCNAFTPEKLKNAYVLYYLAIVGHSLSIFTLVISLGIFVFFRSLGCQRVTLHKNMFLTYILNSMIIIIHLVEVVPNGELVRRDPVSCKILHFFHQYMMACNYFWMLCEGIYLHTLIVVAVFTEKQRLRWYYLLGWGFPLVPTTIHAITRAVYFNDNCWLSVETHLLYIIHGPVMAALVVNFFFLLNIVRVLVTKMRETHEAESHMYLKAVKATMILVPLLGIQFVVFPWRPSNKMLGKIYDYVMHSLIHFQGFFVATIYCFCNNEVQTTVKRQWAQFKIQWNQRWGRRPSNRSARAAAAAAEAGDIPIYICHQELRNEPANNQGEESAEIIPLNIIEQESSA
T2 sequence (O60896 24-148 partner): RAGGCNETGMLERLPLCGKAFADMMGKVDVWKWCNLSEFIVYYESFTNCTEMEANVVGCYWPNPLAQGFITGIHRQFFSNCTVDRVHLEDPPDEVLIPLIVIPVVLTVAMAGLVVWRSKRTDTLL

[4] = target: T3, rat amylin receptor (rat calcitonin receptor + rat RAMP 3) (Rattus norvegicus, UniProt P32214+Q9JJ73); assay: ASSAY (VI) binding to the rat amylin receptor; conditions: for IC50: binding to rat amylin receptor, read-out: rAmylin-R bind IC50
T3 construct: expressed in transfected cells; host or cells: BHK tk'ts 13 (transient, FuGENE 6), membranes
T3 sequence (P32214 25-479 isoform P32214-2 limits assumed): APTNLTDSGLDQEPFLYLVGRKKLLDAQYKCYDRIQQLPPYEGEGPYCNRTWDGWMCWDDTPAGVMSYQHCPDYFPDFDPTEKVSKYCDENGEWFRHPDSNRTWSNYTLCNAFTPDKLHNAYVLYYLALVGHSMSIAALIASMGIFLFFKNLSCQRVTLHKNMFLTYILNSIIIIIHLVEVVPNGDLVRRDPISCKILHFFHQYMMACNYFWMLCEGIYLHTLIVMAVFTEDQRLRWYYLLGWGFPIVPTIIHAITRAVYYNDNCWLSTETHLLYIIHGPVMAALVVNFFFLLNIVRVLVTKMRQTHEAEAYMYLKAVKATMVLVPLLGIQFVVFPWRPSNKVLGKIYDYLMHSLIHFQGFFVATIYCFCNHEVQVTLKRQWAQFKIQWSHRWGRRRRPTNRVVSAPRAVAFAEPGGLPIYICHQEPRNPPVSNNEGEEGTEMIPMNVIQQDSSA
T3 sequence (Q9JJ73 23-147 partner): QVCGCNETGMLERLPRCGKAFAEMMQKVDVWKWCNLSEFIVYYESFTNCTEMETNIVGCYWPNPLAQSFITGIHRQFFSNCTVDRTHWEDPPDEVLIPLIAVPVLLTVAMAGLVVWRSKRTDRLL
Outline: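 Membranes for this rat amylin receptor binding assay came from BHK tk′ts 13 cells. The cells were transiently transfected with rat calcitonin receptor using the FuGENE® 6 reagent from Roche, as the manufacturer recommends. The cells were collected approximately 48 hours after transfection, and membranes were then prepared.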

rat calcitonin receptor = target: T4, rat calcitonin receptor (Rattus norvegicus, UniProt P32214); assay: ASSAY (VIII) binding to the rat calcitonin receptor; conditions: Table 7, read-out: rCTR bind IC50
T4 construct: expressed in transfected cells; host or cells: BHK tk'ts 13 (transient, FuGENE 6), membranes
T4 sequence (P32214 25-479 isoform P32214-2 limits assumed): T3 sequence (P32214 25-479 isoform P32214-2 limits assumed)
Outline: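 Cell membranes for binding came from BHK tk′ts 13 cells harvested approximately 48 hours after transient transfection with the rat receptor.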

[5] = hCTR funct. EC50 divided by hAmylin-R funct. EC50
[6] = hCTR funct. EC50 over hAmylin-R funct. EC50
[7] = human functional selectivity: hCTR funct. EC50 / hAmylin-R funct. EC50
[8] = bistrispropane buffer, pH 6.5, read-out: Solubility pH 6.5 Concentration
[9] = bistrispropane buffer, pH 7.5, read-out: Solubility pH 7.5 Concentration
[10] = bistrispropane buffer, pH 6.0, read-out: Solubility pH 6.0 Concentration
[11] = bistrispropane buffer, pH 7.0, read-out: Solubility pH 7.0 Concentration
[12] = bistrispropane buffer, pH 8.0, read-out: Solubility pH 8.0 Concentration
[13] = glycylglycine buffer, pH 3.0, read-out: Solubility pH 3.0 Concentration
[14] = glycylglycine buffer, pH 4.0, read-out: Solubility pH 4.0 Concentration
[15] = glycylglycine buffer, pH 5.0, read-out: Solubility pH 5.0 Concentration
[16] = Table 5, selectivity, hCTR bind IC50 / hAmylin-R bind IC50
[17] = Table 7, human binding selectivity, included for comparison
[18] = Table 7a (preferred compounds), human binding selectivity, included for comparison
[19] = Table 7, rat binding selectivity, rCTR IC50 / rAmylin-R IC50
[20] = Table 7a (preferred compounds), rat binding selectivity, rCTR IC50 / rAmylin-R IC50
[21] = Table 5a, selectivity, hCTR bind IC50 / hAmylin-R bind IC50
[22] = Table 5b, selectivity, hCTR bind IC50 / hAmylin-R bind IC50
[23] = Table 5c, selectivity, hCTR bind IC50 / hAmylin-R bind IC50
[24] = ratio of human calcitonin receptor binding IC50 to human amylin receptor binding IC50
[25] = ratio of rCTR bind IC50 to rAmylin-R bind IC50

Row | Ratio hCT/hAmylin funct. [1, 5] | Ratio hCT/hAmylin funct. [1, 6] | Ratio hCT/hAmylin funct. [1, 7] | solubility at 18 h [2, 8] [µM] | solubility at 18 h [2, 9] [µM] | solubility at 18 h [2, 10] [µM] | solubility at 18 h [2, 11] [µM] | solubility at 18 h [2, 12] [µM] | solubility at 18 h [2, 13] [µM] | solubility at 18 h [2, 14] [µM] | solubility at 18 h [2, 15] [µM] | Ratio hCT/hAmylin binding [3, 16] | Ratio hCT/hAmylin binding [3, 17] | Ratio hCT/hAmylin binding [3, 18] | IC50 ([4]; Table 7) [nM] | Ratio rCT/rAmylin binding [4, 19] | Ratio rCT/rAmylin binding [4, 20] | IC50 (rat calcitonin receptor) [nM] | Ratio hCT/hAmylin binding [3, 21] | Ratio hCT/hAmylin binding [3, 22] | Compound | other results
1 | 4.8 | 4.8 | 4.8 | ≥ 200 | 122 (≈ 539 µg/mL) | ≥ 200 | 177 (≈ 782 µg/mL) | 111 (≈ 491 µg/mL) | ≥ 200 | ≥ 200 | ≥ 200 | 9.2 | 9.2 | 9.2 | 0.476 | 27.3 | 27.3 | 13 |  |  | CC[C@H](C)[C@H](NC(=O)[C@H](C)NC(=O)CNC(=O)[C@H](Cc1ccccc1)NC(=O)[C@H](CC(N)=O)NC(=O)[C@@H]1CCCN1C(=O)[C@H](CO)NC(=O)[C@H](CO)NC(=O)[C@H](Cc1c[nH]cn1)NC(=O)[C@H](CCCNC(=N)N)NC(=O)[C@H](CC(C)C)NC(=O)[C@H](Cc1ccccc1)NC(=O)[C@H](CCC(=O)O)NC(=O)[C@H](C)NC(=O)[C@H](CC(C)C)NC(=O)[C@H](CCCNC(=N)N)NC(=O)[C@H](CCC(N)=O)NC(=O)[C@@H](NC(=O)[C@H](C)NC(=O)[C@@H]1CSSC[C@H](NC(=O)[C@H](CCCCN)NC(=O)CC[C@H](NC(=O)CCCCCCCCCCCCCCCCCCC(=O)O)C(=O)O)C(=O)N[C@@H](CC(N)=O)C(=O)N[C@@H]([C@@H](C)O)C(=O)N[C@@H](C)C(=O)N[C@@H]([C@@H](C)O)C(=O)N1)[C@@H](C)O)C(=O)N1CCC[C@H]1C(=O)N[C@@H](CO)C(=O)N[C@@H](CO)C(=O)N[C@H](C(=O)N[C@@H](CC(N)=O)C(=O)N[C@H](C(=O)NCC(=O)N[C@@H](CO)C(=O)N[C@@H](Cc1c[nH]cn1)C(=O)N[C@H](C(=O)N[C@@H](Cc1ccc(O)cc1)C(N)=O)[C@@H](C)O)C(C)C)[C@@H](C)O [Example 18] ({C20 diacid-γGlu}-KCNTATCATQRLAEFLRHSSPNFGAIPSSTNVGSHTY-NH2; disulfide 2-7) | Ratio hCT/hAmylin funct. ([1]; hCTR funct. EC50 / hAmylin-R funct. EC50): 4.8; EC50 ([1]; human amylin receptor functional potency, assay (II), read-out: hAmylin-R funct. EC50): 0.154 nM; IC50 ([3]; Table 4, read-out: hAmylin-R bind IC50): 0.554 nM
2 | 44.9 | 44.9 | 44.9 | ≥ 200 | ≥ 200 | ≥ 200 | ≥ 200 | ≥ 200 | ≥ 200 | ≥ 200 | ≥ 200 | 280.0 | 280.0 | 280.0 | 0.93 | 239.5 | 239.5 | 223 | 280.0 | 280.0 | CC[C@H](C)[C@H](NC(=O)[C@H](C)NC(=O)CNC(=O)[C@H](Cc1ccccc1)NC(=O)[C@H](CC(N)=O)NC(=O)[C@@H]1CCCN1C(=O)[C@H](CO)NC(=O)[C@H](CO)NC(=O)[C@H](Cc1c[nH]cn1)NC(=O)[C@H](CCCNC(=N)N)NC(=O)[C@H](CC(C)C)NC(=O)[C@H](Cc1ccccc1)NC(=O)[C@H](CC(=O)O)NC(=O)[C@H](C)NC(=O)[C@H](CC(C)C)NC(=O)[C@H](CCCNC(=N)N)NC(=O)[C@H](CCC(N)=O)NC(=O)[C@@H](NC(=O)[C@H](C)NC(=O)[C@@H]1CSSC[C@H](NC(=O)[C@@H](N)CCCCNC(=O)CC[C@H](NC(=O)CC[C@H](NC(=O)CCCCCCCCCCCCCCCCCCC(=O)O)C(=O)O)C(=O)O)C(=O)N[C@@H](CC(N)=O)C(=O)N[C@@H]([C@@H](C)O)C(=O)N[C@@H](C)C(=O)N[C@@H]([C@@H](C)O)C(=O)N1)[C@@H](C)O)C(=O)N1CCC[C@H]1C(=O)N[C@@H](CO)C(=O)N[C@@H](CO)C(=O)N[C@H](C(=O)N[C@@H](CC(N)=O)C(=O)N[C@H](C(=O)NCC(=O)N1CCC[C@H]1C(=O)N[C@@H](CCCNC(=N)N)C(=O)N[C@H](C(=O)N[C@@H](Cc1ccc(O)cc1)C(N)=O)[C@@H](C)O)C(C)C)[C@@H](C)O [Example 130] (H-K([γGlu-γGlu-C20 diacid])CNTATCATQRLADFLRHSSPNFGAIPSSTNVGPRTY-NH2; disulfide 2-7 (inferred); N-terminus assumed) | Ratio hCT/hAmylin binding [3, 23]: 280.0; Ratio hCT/hAmylin binding [3, 24]: 280.0; Ratio rCT/rAmylin binding [4, 25]: 239.5
3 | 5.2 | 5.2 | 5.2 | ≥ 200 | ≥ 200 | ≥ 200 | ≥ 200 | ≥ 200 | ≥ 200 | ≥ 200 | ≥ 200 | 13.3 | 13.3 | 13.3 | 0.164 | 63.2 | 63.2 | 10.4 | 13.3 | 13.3 | CC[C@H](C)[C@H](NC(=O)[C@H](C)NC(=O)CNC(=O)[C@H](Cc1ccccc1)NC(=O)[C@H](CC(N)=O)NC(=O)[C@@H]1CCCN1C(=O)[C@H](CO)NC(=O)[C@H](CO)NC(=O)[C@H](Cc1c[nH]cn1)NC(=O)[C@H](CCCNC(=N)N)NC(=O)[C@H](CC(C)C)NC(=O)[C@H](Cc1ccccc1)NC(=O)[C@H](CCC(=O)O)NC(=O)[C@H](C)NC(=O)[C@H](CC(C)C)NC(=O)[C@H](CCCNC(=N)N)NC(=O)[C@H](CCC(N)=O)NC(=O)[C@@H](NC(=O)[C@H](C)NC(=O)[C@@H]1CSSC[C@H](NC(=O)[C@@H](N)CCCCNC(=O)CC[C@H](NC(=O)CCCCCCCCCCCCCCCCCCC(=O)O)C(=O)O)C(=O)N[C@@H](CC(N)=O)C(=O)N[C@@H]([C@@H](C)O)C(=O)N[C@@H](C)C(=O)N[C@@H]([C@@H](C)O)C(=O)N1)[C@@H](C)O)C(=O)N1CCC[C@H]1C(=O)N[C@@H](CO)C(=O)N[C@@H](CO)C(=O)N[C@H](C(=O)N[C@@H](CC(N)=O)C(=O)N[C@H](C(=O)NCC(=O)N1CCC[C@H]1C(=O)N[C@@H](CCC(=O)O)C(=O)N[C@H](C(=O)N[C@@H](Cc1ccc(O)cc1)C(N)=O)[C@@H](C)O)C(C)C)[C@@H](C)O [Example 109] (H-K([γGlu-C20 diacid])CNTATCATQRLAEFLRHSSPNFGAIPSSTNVGPETY-NH2; disulfide 2-7 (inferred); N-terminus assumed) | Ratio hCT/hAmylin binding [3, 23]: 13.3; Ratio hCT/hAmylin binding [3, 24]: 13.3; Ratio rCT/rAmylin binding [4, 25]: 63.2
